Reference: the supplement of paper PMC10627819

Assays:
Conditions in all cases: main component drawn
S. aureus DSM 20231 [1] = test: fitness (endpoint OD595 vs no drug) (fraction); higher = more growth
How it was run: (§1)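 Fitness was measured as bacterial growth in 384-well plates inoculated at OD595 0.01 (30 µl, or 55 µl for S. pneumoniae). Media were TSB, LB Lennox or CY, at 37 °C. OD595 was read every 30 min for 14 h and background-subtracted against the first reading. Fitness is OD595 at the transition into stationary phase divided by the robust mean of no-drug control wells, capped at 1.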

S. aureus Newman [2] = test: as above
How it was run: as §1

S. pneumoniae D39V = test: Bliss interaction score (quartile over a dose matrix) (fitness difference); higher = more antagonism (negative = synergy)
How it was run: (§2)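 Each OD595 reading at entry into stationary phase was scaled to the robust mean of the untreated wells on its plate, with a ceiling of 1. These ratios define fitness, and single-drug fitness was inferred from combinations. The Bliss score compares observed fitness with the product-based expectation and is reported as quartiles across all replicate types, technical, biological and donor/recipient.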

S. aureus DSM 20231 [3] = test: as above
How it was run: as §2

S. aureus Newman [4] = test: as above
How it was run: as §2

B. subtilis 168 = test: as above
How it was run: as §2
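For Bliss interaction score (quartile over a dose matrix) in this document: first quartile when negative (synergy) and third quartile when positive (antagonism).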
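For fitness (endpoint OD595 vs no drug) in this document: OD595 on entry to stationary phase over no-drug wells; at most 1.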

CN[C@@H]1[C@H](O)[C@H](NC)[C@H]2O[C@@]3(O)C(=O)C[C@@H](C)O[C@H]3O[C@@H]2[C@H]1O [Spectinomycin] + CCCCCCCCCC(=O)N[C@@H]1[C@H]([C@@H]([C@H](O[C@H]1OC2=C3C=C4C=C2OC5=C(C=C(C=C5)[C@H]([C@H]6C(=O)N[C@@H](C7=C(C(=CC(=C7)O)OC8[C@H]([C@H]([C@@H]([C@H](O8)CO)O)O)O)C9=C(C=CC(=C9)[C@H](C(=O)N6)NC(=O)[C@@H]4NC(=O)[C@@H]1C2=CC(=CC(=C2)OC2=C(C=CC(=C2)[C@H](C(=O)N[C@H](CC2=CC(=C(O3)C=C2)Cl)C(=O)N1)N)O)O)O)C(=O)O)O[C@H]1[C@@H]([C@H]([C@@H]([C@H](O1)CO)O)O)NC(=O)C)Cl)CO)O)O [Teicoplanin]
fitness
Conditions	first compound 4 µg/mL	first compound 8 µg/mL	first compound 16 µg/mL
S. aureus DSM 20231 [1], partner 0.1562 µg/mL	0.938	≥ 1	0.889
S. aureus DSM 20231 [1], partner 0.3125 µg/mL	0.962	0.969	0.919
S. aureus DSM 20231 [1], partner 0.625 µg/mL	≥ 1	≥ 1	0.985
S. aureus Newman [2], partner 0.1562 µg/mL	≥ 1	≥ 1	0.993
S. aureus Newman [2], partner 0.3125 µg/mL	≥ 1	0.998	0.973
S. aureus Newman [2], partner 0.625 µg/mL	0.817	0.705	0.831

fitness, one replicate
Conditions	partner 0.1562 µg/mL	partner 0.3125 µg/mL	partner 0.62 µg/mL	partner 0.625 µg/mL	partner 1.24 µg/mL	partner 2.48 µg/mL
S. aureus DSM 20231 [1], first compound 32 µg/mL	0.788	0.834	–	0.992	–	–
S. aureus DSM 20231 [1], first compound 64 µg/mL	0.0706	0.0748	–	0.0694	–	–
S. aureus Newman [2], first compound 4 µg/mL	–	–	0.792	–	0.743	0.411
S. aureus Newman [2], first compound 8 µg/mL	–	–	0.83	–	0.68	0.505
S. aureus Newman [2], first compound 16 µg/mL	–	–	0.854	–	0.645	0.428
S. aureus Newman [2], first compound 32 µg/mL	0.639	0.694	–	0.666	–	–
S. aureus Newman [2], first compound 64 µg/mL	0.0786	0.071	–	0.0311	–	–

Conditions	Bliss interaction score
B. subtilis 168	0.138
S. aureus DSM 20231 [3]	0.0832
S. aureus Newman [4]	0.0966
S. pneumoniae D39V	-0.0746
